{
  "source": "patent US20090012088A1",
  "about": "(priority 2005, published 2009)",
  "key": {"[1]": {"system": "PARG", "assay": "Table 2: small molecules tested for PARG inhibition activity (relative to PIP-1)", "assay_type": "biochemical"}, "[2]": {"system": "poly(ADP-ribose) in PC-12 cells", "assay": "Intracellular PAR staining in H2O2-treated PC-12 cells (flow cytometry)", "assay_type": "cell-based", "conditions": "PC-12 cells pre-treated with PIP-1, then H2O2", "method": "Screening of the 22,000 compounds in this manner produced 38 primary hits (FIG. 15A—“initial hits”). These 38 compounds are assessed for their ability to inhibit PARP-1 and PARG using standard in vitro assays. (12, 29) 20 compounds are PARP-1 inhibitors, and 3 are PARG inhibitors (FIG. 15A). Compounds 1 and 2 inhibit PARG quite well, with IC50 values of ˜0.4-0.5 μM (FIG. 15C). […] Subsequent efforts therefore focused on compound 1, which is named PIP-1 (pyridazinone inhibitor of PARG), and derivatives thereof. […] To determine if PIP-1 could induce the build-up of PAR in cell culture, PC-12 cells were treated with a range of PIP-1 concentrations; H2O2 was then added to induce PARP-1 activity and the cellular PAR levels were quantitated with an anti-PAR antibody and flow cytometry.\nIntracellular PAR staining: 1 mL of 10^6 cells/mL PC-12 cells is added to the wells of a 24-well plate. Varying concentrations of PIP-1 or DMSO as a control are added to the cells and incubated for 2 h at 37° C. H2O2 is added to the cells to approximately […]. After a 2 h incubation at 37° C., the cells are thoroughly washed in PBS and fixed overnight in 4° C. ethanol. The cells are again washed in PBS and stained with a 1:50 dilution of anti-poly(ADP-ribose) antibody for 4 h at 4° C. […] After washing with PBS, the fluorescent intensity of each cell is determined by flow cytometry."}, "[3]": {"system": "neuronally differentiated SK-N-SH cells", "assay": "Protection from MPP+ induced toxicity in neuronally differentiated SK-N-SH cells", "assay_type": "cell-based", "conditions": "10 μM MPP+, 72 h, read-out: EC50 (IC50) for protection from MPP+ induced cell death", "method": "(§1) In vivo MPTP is metabolized to its active form, the 1-methyl-4-phenylpyridinium ion (MPP^+), and MPP^+ has proven very useful in a variety of cell culture models of PD. To determine the protective effect of PIP-1 on cells subjected to MPP^+ insult, PC-12 (differentiated as above) and SK-N-SH (differentiated with retinoic acid for 12 days) cells are treated with 10 μM MPP^+ and a range of PIP-1 concentrations, and cell death is assessed by propidium iodide staining and flow cytometry. […] As shown in FIGS. 20A and 20B, PIP-1 also protects differentiated PC-12 and SK-N-SH cells from rotenone-induced toxicity as well.\n(§2) Cell culture conditions: HL-60 and SK-N-SH cells are grown in RPMI 1640 media supplemented with 10% FBS and PC-12 cells are grown in RPMI 1640 media supplemented with 10% HS and 5% FBS. All cell lines are incubated at 37° C. in a 5% CO2, 95% air atmosphere. HL-60 cells are split every two to three days as needed and SK-N-SH cells are split when they reach approximately 90% confluency at a 1:6 ratio. […]\n(§3) Protection of Rotenone and MPP^+ induced toxicity in PC-12 and SK-N-SH cells: SK-N-SH and PC-12 cells are neuronally differentiated as described above. […] The cells are then washed in PBS and the viability is determined by adding propidium iodide to 1 μg/mL and measuring the fluorescent intensity of each cell by flow cytometry."}, "[4]": {"assay": "Assessment of PIP-1 levels in the brain (blood-brain-barrier penetrance)", "assay_type": "in vivo, mice", "conditions": "50 mg/kg i.p.", "method": "As a prelude to assessment of PIP-1 in a mouse model of PD, the ability of PIP-1 to penetrate the blood-brain-barrier is first assessed. PIP-1 is injected i.p. at a dose of 50 mg/kg, and mice are sacrificed at 1 and 2 h post injection. After sacrifice, to establish the presence of PIP-1 in the brain the striatum was dissected, sonicated in perchloric acid, and centrifuged. The clarified supernatant is analyzed by HPLC. No endogenous compounds interfere with this assay for PIP-1 as no signal is detected in dissected striata from non-treated mice. As shown by FIG. 21A, the striatal penetrance of PIP-1 is at the level of 70 ng/mg of protein. […] Given this blood-brain-barrier penetrance by PIP-1, the compound is assessed in the MPTP mouse model of PD. […] PIP-1 is assessed at concentrations of 0 mg/kg, 1 mg/kg, 5 mg/kg, 10 mg/kg, and 50 mg/kg, and five mice are used in each group. After 30 days, the mice are sacrificed and the striatum dissected and analyzed by HPLC to determine the levels of dopamine and various dopamine metabolites.\nAssessment of PIP-1 levels in the brain: PIP-1 was injected into mice i.p. at 50 mg/kg and were sacrificed at 1 and 2 h post injection. […] The clarified supernatant was then injected into an HPLC and the concentration of PIP-1 was determined by comparison to a standard curve. […]"}, "[5]": {"system": "neuronally differentiated SK-N-SH cells", "assay": "Protection from rotenone induced toxicity in neuronally differentiated SK-N-SH cells", "assay_type": "cell-based", "conditions": "Homo sapiens, 10 μM rotenone", "method": "as §1, §2, §3"}, "[6]": {"system": "differentiated PC-12 and SK-N-SH cells", "assay": "Cellular toxicity in differentiated PC-12 and SK-N-SH cells", "assay_type": "cell-based", "conditions": "at concentrations up to 100 μM", "method": "as §1\nProtection of Rotenone and MPP^+ induced toxicity in PC-12 and SK-N-SH cells: SK-N-SH and PC-12 cells are neuronally differentiated as described above. 10 μM rotenone, 10 μM MPP^+ and various concentrations of PIP-1 or its derivatives are added to the cells and incubated for 72 h. The cells are then washed in PBS and the viability is determined by adding propidium iodide to 1 μg/mL and measuring the fluorescent intensity of each cell by flow cytometry."}},
  "note": "“Also recorded” adds a separate entry of the source.",
  "data": [
    {"smiles": "CN(C)c1cnn(-c2ccccc2)c(=O)c1N", "note": "[PIP-1, 4-Amino-5-dimethylamino-2-phenyl-2H-pyridazin-3-one]", "values": [
      {"measurement": "Activity", "setting": "[1]", "value": "good"},
      {"measurement": "Accumulation of intracellular PAR", "setting": "[2]", "value": "dose-dependent accumulation of intracellular PAR"},
      {"measurement": "EC50", "setting": "[3]", "value": 1.64, "unit": "µM"},
      {"measurement": "EC50", "setting": "[3]; Homo sapiens, SK-N-SH", "value": "~1.8", "unit": "µM"},
      {"measurement": "Striatal penetrance of PIP-1", "setting": "[4]; mice, 1 and 2 h post injection, striatum", "value": "70 ng/mg of protein"},
      {"measurement": "PIP-1 in peripheral blood", "setting": "[4]; same time points", "value": "no detectable PIP-1"},
      {"measurement": "EC50", "setting": "[5]", "value": 2.18, "unit": "µM"},
      {"measurement": "Cellular toxicity / adverse effects on differentiated neurons", "setting": "[6]", "value": "no adverse effects; also recorded: no cellular toxicity"}
    ]}
  ]
}
